Data published in ChEMBL document CHEMBL1126851, “Conformationally restrained analogs of sympathomimetic catecholamines. Synthesis, conformational analysis, and adrenergic activity of isochroman derivatives” (J Med Chem, 1993).

Columns and labels:
[1] = molecular target: Beta-1 adrenergic receptor (Rattus norvegicus, UniProt P18090); test: biochemical
Description: Tested for binding affinity against beta-1 adrenergic receptor in rat brain using [3H]-CGP- 26505 as radioligand

[2] = molecular target: T1, Adrenergic receptor alpha-2 (Rattus norvegicus, UniProt P22086+P19328+P22909)
T1 sequence (P22086 whole entry): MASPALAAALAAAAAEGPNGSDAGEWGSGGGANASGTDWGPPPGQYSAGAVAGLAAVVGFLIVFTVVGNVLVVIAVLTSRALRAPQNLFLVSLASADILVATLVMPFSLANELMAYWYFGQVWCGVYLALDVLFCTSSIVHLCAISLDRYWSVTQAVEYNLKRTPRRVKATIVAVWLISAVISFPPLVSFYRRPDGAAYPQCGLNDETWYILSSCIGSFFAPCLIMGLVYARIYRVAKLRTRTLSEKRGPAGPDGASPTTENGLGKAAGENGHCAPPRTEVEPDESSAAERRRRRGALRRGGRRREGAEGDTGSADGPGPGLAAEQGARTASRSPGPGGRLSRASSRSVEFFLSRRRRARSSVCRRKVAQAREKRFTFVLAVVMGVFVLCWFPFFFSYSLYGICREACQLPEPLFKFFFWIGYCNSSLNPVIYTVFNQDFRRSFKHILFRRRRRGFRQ
T1 sequence (P19328 whole entry): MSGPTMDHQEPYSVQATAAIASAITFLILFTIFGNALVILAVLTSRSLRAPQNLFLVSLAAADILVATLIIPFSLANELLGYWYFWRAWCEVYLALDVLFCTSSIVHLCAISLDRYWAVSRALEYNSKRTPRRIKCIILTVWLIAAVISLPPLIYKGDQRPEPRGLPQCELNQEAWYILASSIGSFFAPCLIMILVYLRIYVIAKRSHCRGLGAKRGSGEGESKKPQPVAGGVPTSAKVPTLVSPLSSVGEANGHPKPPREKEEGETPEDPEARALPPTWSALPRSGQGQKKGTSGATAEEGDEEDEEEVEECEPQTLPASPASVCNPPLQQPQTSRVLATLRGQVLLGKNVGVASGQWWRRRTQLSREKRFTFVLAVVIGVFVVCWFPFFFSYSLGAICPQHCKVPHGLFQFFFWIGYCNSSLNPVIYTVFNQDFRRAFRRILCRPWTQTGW
T1 sequence (P22909 whole entry): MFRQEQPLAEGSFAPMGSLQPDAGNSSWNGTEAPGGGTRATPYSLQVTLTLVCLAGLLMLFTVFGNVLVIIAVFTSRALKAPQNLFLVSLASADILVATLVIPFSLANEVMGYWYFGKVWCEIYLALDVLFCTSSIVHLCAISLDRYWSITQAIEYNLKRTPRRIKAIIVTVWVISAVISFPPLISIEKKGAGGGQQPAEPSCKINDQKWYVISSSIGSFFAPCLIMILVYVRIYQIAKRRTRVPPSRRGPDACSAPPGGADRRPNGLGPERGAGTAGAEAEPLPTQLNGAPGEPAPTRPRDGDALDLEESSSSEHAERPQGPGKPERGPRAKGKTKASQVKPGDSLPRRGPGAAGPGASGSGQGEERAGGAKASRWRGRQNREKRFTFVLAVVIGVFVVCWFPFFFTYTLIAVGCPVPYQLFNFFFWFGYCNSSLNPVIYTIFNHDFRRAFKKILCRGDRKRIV

[3] = molecular target: Beta-2 adrenergic receptor (Cavia porcellus, UniProt Q8K4Z4); test: Inhibitory activity against beta-2 adrenergic receptor in guinea pig tracheal strip is determined
[4] = molecular target: T2, Adrenergic receptor alpha-1 (Rattus norvegicus, UniProt P15823+P23944+P43140)
T2 sequence (P15823 whole entry): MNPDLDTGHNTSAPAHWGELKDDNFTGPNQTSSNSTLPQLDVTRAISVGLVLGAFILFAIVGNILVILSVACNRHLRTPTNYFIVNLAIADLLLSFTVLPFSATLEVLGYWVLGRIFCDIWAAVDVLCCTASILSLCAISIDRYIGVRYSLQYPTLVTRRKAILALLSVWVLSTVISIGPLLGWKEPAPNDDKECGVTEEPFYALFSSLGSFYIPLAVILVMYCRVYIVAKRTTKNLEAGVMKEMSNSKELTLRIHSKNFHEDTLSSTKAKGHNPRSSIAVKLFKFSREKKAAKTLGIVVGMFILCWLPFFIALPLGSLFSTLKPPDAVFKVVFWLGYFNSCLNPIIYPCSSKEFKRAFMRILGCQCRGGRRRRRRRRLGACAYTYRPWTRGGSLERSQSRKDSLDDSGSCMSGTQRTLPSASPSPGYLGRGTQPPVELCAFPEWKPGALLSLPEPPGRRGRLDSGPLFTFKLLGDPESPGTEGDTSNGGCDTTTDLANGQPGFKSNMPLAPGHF
T2 sequence (P23944 whole entry): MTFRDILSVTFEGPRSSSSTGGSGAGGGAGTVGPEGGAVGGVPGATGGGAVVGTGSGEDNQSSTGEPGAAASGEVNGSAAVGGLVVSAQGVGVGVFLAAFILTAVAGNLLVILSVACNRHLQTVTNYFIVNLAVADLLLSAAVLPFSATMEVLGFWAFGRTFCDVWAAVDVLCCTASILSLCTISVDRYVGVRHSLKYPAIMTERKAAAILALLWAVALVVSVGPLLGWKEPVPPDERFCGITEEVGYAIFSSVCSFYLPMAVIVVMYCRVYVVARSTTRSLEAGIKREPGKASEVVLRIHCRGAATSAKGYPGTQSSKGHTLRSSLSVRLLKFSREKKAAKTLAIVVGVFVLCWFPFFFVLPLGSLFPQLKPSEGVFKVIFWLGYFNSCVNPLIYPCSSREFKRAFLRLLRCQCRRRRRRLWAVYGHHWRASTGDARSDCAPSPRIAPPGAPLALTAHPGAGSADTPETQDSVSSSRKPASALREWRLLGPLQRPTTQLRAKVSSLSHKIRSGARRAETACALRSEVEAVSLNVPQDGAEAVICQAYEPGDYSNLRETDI
T2 sequence (P43140 whole entry): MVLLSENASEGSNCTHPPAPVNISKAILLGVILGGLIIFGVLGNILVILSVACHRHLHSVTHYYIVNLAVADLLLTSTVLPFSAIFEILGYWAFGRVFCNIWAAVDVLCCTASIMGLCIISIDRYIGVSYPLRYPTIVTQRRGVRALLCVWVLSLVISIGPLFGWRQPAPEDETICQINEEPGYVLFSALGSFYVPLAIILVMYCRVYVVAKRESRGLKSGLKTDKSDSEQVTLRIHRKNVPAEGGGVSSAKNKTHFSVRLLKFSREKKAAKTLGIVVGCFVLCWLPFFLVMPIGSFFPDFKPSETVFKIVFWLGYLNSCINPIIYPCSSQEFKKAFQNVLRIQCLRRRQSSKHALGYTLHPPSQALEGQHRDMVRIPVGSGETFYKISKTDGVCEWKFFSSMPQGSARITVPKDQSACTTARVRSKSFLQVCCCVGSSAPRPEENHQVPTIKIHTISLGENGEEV

[5] = molecular target: Beta-1 adrenergic receptor (Cavia porcellus, UniProt B0FL73)
Description: (§1) Inhibitory activity against beta-1 adrenergic receptor in guinea pig atria is determined

[6] = molecular target: T3, Adrenergic receptor alpha-1 (Rattus norvegicus) (UniProt P15823+P23944+P43140); test: Tested for alpha adrenergic activity against alpha-1 receptor from isolated rat vas deferens; format: tissue-based
[7] = molecular target: T3, Adrenergic receptor alpha-1 (Rattus norvegicus); test: Intrinsic activity against alpha-1 receptor in isolated rat vas deferens; format: tissue-based
[8] = molecular target: T4, Adrenergic receptor alpha-2 (UniProt P08913+P18825+P18089); conditions: Cavia porcellus; Ileum
Description: Intrinsic activity against alpha-2 receptor in isolated guinea pig ileum

[9] = molecular target: T4, Adrenergic receptor alpha-2; conditions: Cavia porcellus; Ileum; remark: listed apart in the source
Description: Tested for alpha adrenergic activity against alpha-2 receptor from isolated guinea pig ileum

[10] = molecular target: Beta-2 adrenergic receptor (Bos taurus, UniProt Q28044); test: Tested for binding affinity against beta-2 adrenergic receptor in bovine lung using [3H]DHA as radioligand
[11] = molecular target: Beta-2 adrenergic receptor (Cavia porcellus) (UniProt Q8K4Z4)
[12] = molecular target: T2, Adrenergic receptor alpha-1; test: -log IC50 value against alpha-1 receptor in rat vas deferens; format: tissue-based
[13] = molecular target: Beta-1 adrenergic receptor (Cavia porcellus) (UniProt B0FL73)
Description: as §1

[14] = molecular target: Beta-2 adrenergic receptor (Cavia porcellus) (UniProt Q8K4Z4); remark: listed apart in the source
[15] = molecular target: Beta-1 adrenergic receptor (Cavia porcellus) (UniProt B0FL73); test: Intrinsic activity against beta-1 receptor in isolated guinea pig atria

Beta-2 adrenergic receptor (Cavia porcellus, UniProt Q8K4Z4), sequence (Q8K4Z4 whole entry): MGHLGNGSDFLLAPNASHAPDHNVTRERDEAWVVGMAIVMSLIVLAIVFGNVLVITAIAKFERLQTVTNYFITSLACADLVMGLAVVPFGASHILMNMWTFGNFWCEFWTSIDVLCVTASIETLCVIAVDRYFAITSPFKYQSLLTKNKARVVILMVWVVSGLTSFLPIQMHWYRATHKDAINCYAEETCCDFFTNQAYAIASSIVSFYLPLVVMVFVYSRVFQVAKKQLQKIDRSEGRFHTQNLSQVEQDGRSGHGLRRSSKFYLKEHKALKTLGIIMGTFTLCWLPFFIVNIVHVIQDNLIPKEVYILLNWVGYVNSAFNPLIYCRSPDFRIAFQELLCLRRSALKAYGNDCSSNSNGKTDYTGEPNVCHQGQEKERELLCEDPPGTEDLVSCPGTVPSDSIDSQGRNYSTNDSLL
Beta-2 adrenergic receptor (Cavia porcellus), sequence (Q8K4Z4 whole entry, looked up): as the sequence (Q8K4Z4 whole entry) above
Beta-1 adrenergic receptor (Cavia porcellus, UniProt B0FL73), sequence (B0FL73 whole entry): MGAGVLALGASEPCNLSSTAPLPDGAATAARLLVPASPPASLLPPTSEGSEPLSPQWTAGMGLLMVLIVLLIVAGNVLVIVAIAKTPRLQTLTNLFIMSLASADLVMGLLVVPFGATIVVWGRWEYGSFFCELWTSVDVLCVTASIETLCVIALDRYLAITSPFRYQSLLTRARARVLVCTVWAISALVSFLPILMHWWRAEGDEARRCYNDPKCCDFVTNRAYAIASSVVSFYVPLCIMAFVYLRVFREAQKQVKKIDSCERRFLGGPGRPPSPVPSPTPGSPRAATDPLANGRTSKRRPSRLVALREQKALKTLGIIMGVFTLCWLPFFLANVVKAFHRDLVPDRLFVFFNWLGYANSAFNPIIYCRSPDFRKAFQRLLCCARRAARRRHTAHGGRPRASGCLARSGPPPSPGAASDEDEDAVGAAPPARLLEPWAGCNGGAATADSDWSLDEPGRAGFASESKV
Beta-1 adrenergic receptor (Rattus norvegicus, UniProt P18090), sequence (P18090 whole entry): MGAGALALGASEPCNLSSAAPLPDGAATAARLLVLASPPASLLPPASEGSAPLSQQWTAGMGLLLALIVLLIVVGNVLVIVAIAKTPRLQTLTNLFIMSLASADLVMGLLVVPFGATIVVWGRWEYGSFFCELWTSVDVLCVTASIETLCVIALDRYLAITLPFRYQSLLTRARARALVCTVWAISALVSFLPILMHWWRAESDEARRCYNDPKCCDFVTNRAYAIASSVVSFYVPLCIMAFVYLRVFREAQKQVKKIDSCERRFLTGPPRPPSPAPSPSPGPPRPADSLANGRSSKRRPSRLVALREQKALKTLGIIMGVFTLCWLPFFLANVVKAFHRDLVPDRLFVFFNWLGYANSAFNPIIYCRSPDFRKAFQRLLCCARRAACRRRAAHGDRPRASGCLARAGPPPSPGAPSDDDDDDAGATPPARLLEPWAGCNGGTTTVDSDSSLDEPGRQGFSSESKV
Beta-2 adrenergic receptor (Bos taurus, UniProt Q28044), sequence (Q28044 whole entry): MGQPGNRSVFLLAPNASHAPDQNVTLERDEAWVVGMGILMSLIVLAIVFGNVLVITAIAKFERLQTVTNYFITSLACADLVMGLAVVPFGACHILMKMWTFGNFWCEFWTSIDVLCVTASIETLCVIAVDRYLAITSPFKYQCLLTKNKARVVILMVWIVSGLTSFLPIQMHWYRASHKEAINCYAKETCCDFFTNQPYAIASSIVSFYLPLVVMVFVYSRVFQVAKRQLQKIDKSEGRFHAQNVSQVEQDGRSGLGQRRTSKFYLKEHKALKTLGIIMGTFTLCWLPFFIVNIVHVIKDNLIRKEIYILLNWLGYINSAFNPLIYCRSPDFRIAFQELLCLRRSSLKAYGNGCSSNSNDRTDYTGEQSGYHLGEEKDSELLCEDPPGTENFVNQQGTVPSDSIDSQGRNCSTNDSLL
T4 sequence (P08913 whole entry, looked up): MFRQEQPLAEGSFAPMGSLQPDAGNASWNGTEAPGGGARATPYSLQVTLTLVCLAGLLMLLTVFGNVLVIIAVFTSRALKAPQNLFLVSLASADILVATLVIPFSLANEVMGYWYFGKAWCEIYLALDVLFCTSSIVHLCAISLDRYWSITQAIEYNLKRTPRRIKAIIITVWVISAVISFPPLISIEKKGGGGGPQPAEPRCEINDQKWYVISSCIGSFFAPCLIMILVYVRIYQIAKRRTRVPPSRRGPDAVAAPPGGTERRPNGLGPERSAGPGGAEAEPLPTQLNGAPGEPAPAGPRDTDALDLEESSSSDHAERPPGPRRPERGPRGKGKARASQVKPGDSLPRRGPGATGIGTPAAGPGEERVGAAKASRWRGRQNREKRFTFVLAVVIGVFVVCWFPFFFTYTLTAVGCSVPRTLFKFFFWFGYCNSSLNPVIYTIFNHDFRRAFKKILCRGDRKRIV
T4 sequence (P18089 whole entry, looked up): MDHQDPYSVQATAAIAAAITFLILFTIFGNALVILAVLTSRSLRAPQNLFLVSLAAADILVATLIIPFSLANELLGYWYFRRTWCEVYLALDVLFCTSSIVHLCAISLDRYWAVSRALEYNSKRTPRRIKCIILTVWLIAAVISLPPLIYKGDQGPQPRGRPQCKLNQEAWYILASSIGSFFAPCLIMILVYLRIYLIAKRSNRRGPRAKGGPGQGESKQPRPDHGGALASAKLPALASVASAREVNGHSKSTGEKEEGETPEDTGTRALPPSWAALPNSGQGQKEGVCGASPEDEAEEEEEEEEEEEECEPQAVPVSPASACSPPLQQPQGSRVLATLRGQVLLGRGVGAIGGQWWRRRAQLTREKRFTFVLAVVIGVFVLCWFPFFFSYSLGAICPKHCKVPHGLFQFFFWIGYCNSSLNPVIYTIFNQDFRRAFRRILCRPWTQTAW
T4 sequence (P18825 whole entry, looked up): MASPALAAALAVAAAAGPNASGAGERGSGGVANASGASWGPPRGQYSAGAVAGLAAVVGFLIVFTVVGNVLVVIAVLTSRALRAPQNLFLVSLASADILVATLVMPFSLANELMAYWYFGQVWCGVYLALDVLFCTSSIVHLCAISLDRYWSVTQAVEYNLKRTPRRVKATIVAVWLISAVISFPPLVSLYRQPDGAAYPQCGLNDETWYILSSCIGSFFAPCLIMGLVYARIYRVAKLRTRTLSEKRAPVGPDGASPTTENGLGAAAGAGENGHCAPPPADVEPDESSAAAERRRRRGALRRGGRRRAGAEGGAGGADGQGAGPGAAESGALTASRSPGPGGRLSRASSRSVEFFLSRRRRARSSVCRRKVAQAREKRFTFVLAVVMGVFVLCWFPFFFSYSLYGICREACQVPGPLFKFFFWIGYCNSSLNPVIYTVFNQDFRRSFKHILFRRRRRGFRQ
Beta-1 adrenergic receptor (Cavia porcellus), sequence (B0FL73 1-467): as the sequence (B0FL73 whole entry) above

Row | Ki [1] [µM] | Ki [2] [µM] | IC50 [3] [µM] | Ki [4] [µM] | IC50 [5] [µM] | pD2 [6] | IA [7] | IA [8] | pD2 [9] | Ki [10] [µM] | pD2 [11] | -Log IC50 [12] | pD2 [13] | IA [14] | IA [15] | Compound
1 | 3.45 | 1.28 | 30.2 | 60.3 | 6.76 | 3.97 | 0.42 | 0.73 | 5.45 | 28.8 |  |  |  |  |  | NCC1OCCc2cc(O)c(O)cc21 (stereo unspecified)
2 | 1.49 | 4.12 | 5.5 | 26 | 33.9 |  |  | 0.72 | 4.56 | 4.9 |  |  |  |  |  | CC(C)NCC1OCCc2cc(O)c(O)cc21 (stereo unspecified)
3 | 28.8 | 1.78 |  | 21.5 | > 316 |  |  | 1 | 5.26 | 14.9 | < 3.5 | < 3.5 |  |  |  | CC(C)NCC1OCCc2c1ccc(O)c2O (stereo unspecified)
4 |  |  |  |  |  | 5.12 | 1 | 1 | 6.56 |  | 6.03 |  | 6.32 | 1 | 1 | NC[C@H](O)c1ccc(O)c(O)c1
5 | 40.3 | 0.0074 | > 316 | 42.2 | 66.1 | 4.69 | 1.03 | 1 |  | 49.9 |  |  |  |  |  | NCC1OCCc2c1ccc(O)c2O (stereo unspecified)
6 |  |  |  |  |  |  | 0.83 |  |  |  |  |  |  | 1 |  | CC(C)NCC(O)c1ccc(O)c(O)c1 (stereo unspecified)
